Laboratory results from patent US20090197880A1 (Genelabs Technologies, Inc., priority 2007, published 2009).

Assay: HCV replicon assay (luciferase) in ET (Huh-lucubineo-ET) cell line
Format: cell-based
Conditions: Hepatitis C virus; tested at 5 μM; inhibition of replication relative to no compound control; ET replicon cells, luciferase 48-72 hours

Row | SMILES | inhibition at 5 µM [%]
1 | CCCCCOc1ccc(-c2cc(Cn3cc4nc(-c5ccccc5F)nc-4cn3)on2)cc1 [Compound 107, 2-(2-Fluoro-phenyl)-5-[3-(4-pentyloxy-phenyl)-isoxazol-5-ylmethyl]-5H-imidazo[4,5-d]pyridazine] | 98.4

Same assay, conditions: Hepatitis C virus; tested at 10 μM; inhibition of replication relative to no compound control; ET replicon cells, luciferase 48-72 hours; read-out: % inhition at 10 μM

Row | SMILES | inhibition at 10 µM [%]
2 | Fc1ccccc1-c1nc2cnn(Cc3cc(-c4cccc(C(F)(F)F)c4)no3)cc-2n1 [Compound 276, 2-(2-Fluoro-phenyl)-5-[3-(3-trifluoromethyl-phenyl)-isoxazol-5-ylmethyl]-5H-imidazo[4,5-d]pyridazine] | 60
3 | CCCCc1ccc(-c2cc(Cn3cc4nc(-c5cccc(F)c5F)nc-4cn3)on2)c(F)c1 [Compound 303, 5-[3-(4-Butyl-2-fluoro-phenyl)-isoxazol-5-ylmethyl]-2-(2,3-difluoro-phenyl)-5H-imidazo[4,5-d]pyridazine] | 99.8
4 | Fc1cccc(-c2nc3cnn(Cc4cc(-c5ccc(OC(F)(F)C(F)C(F)(F)F)cc5)no4)cc-3n2)c1F (stereo not drawn) [Compound 170, 2-(2,3-Difluoro-phenyl)-5-{3-[4-(1,1,2,3,3,3-hexafluoro-propoxy)-phenyl]-isoxazol-5-ylmethyl}-5H-imidazo[4,5-d]pyridazine] | 97.9
5 | FC(F)(F)c1ccc(-c2cc(Cn3cc4nc(NCc5ccccc5)nc-4cn3)on2)c(C(F)(F)F)c1 [Compound 251, Benzyl-{5-[3-(2,4-bis-trifluoromethyl-phenyl)-isoxazol-5-ylmethyl]-5H-imidazo[4,5-d]pyridazin-2-yl}-amine] | 97.7
6 | COc1ccc(-c2cc(Cn3cc4nc(-c5cccc(F)c5F)nc-4cn3)on2)c(O)c1 [Compound 166, 2-{5-[2-(2,3-Difluoro-phenyl)-imidazo[4,5-d]pyridazin-5-ylmethyl]-isoxazol-3-yl}-5-methoxy-phenol] | 70.7
7 | O=C(O)c1cccc(COc2ccc(-c3cc(Cn4cc5nc(-c6cccc(F)c6F)nc-5cn4)on3)cc2)c1 [Compound 159, 3-(4-{5-[2-(2,3-Difluoro-phenyl)-imidazo[4,5-d]pyridazin-5-ylmethyl]-isoxazol-3-yl}-phenoxymethyl)-benzoic Acid] | 49.4
8 | Fc1cccc(-c2nc3cnn(Cc4cc(-c5ccc(CCC(F)(F)F)cc5)no4)cc-3n2)c1F [Compound 331, 2-(2,3-Difluoro-phenyl)-5-{3-[4-(3,3,3-trifluoro-propyl)-phenyl]-isoxazol-5-ylmethyl}-5H-imidazo[4,5-d]pyridazine] | 99.9
9 | Fc1cccc(-c2nc3cnn(Cc4cc(-c5ccc(OCCCC(F)(F)F)cc5)no4)cc-3n2)c1F [Compound 326, 2-(2,3-Difluoro-phenyl)-5-{3-[4-(4,4,4-trifluoro-butoxy)-phenyl]-isoxazol-5-ylmethyl}-5H-imidazo[4,5-d]pyridazine] | 99.3
10 | FC(F)(F)c1ccc(-c2cc(Cn3cc4nc(N5Cc6ccccc6C5)nc-4cn3)on2)c(C(F)(F)F)c1 [Compound 261, 5-[3-(2,4-Bis-trifluoromethyl-phenyl)-isoxazol-5-ylmethyl]-2-(1,3-dihydro-isoindol-2-yl)-5H-imidazo[4,5-d]pyridazine] | 73.9
11 | Cc1csc(-c2cc(Cn3cc4nc(-c5cccc(F)c5F)nc-4cn3)on2)n1 [Compound 180, 2-(2,3-Difluoro-phenyl)-5-[3-(4-methyl-thiazol-2-yl)-isoxazol-5-ylmethyl]-5H-imidazo[4,5-d]pyridazine] | 83.3
12 | CC(C)c1ccc(-c2cc(Cn3cc4nc(-c5cccc(F)c5F)nc-4cn3)on2)cc1 [Compound 305, 2-(2,3-Difluoro-phenyl)-5-[3-(4-isopropyl-phenyl)-isoxazol-5-ylmethyl]-5H-imidazo[4,5-d]pyridazine] | 99.4
13 | Fc1cccc(-c2nc3cnn(Cc4cc(-c5ccc(-c6cn[nH]c6)cc5C(F)(F)F)no4)cc-3n2)c1F [Compound 322, 2-(2,3-Difluoro-phenyl)-5-{3-[4-(1H-pyrazol-4-yl)-2-trifluoromethyl-phenyl]-isoxazol-5-ylmethyl}-5H-imidazo[4,5-d]pyridazine] | 94.9
14 | CCCOc1ccc(-c2cc(Cn3cc4nc(-c5cccc(F)c5F)nc-4c(N)n3)on2)cc1 [Compound 235, 2-(2,3-Difluoro-phenyl)-6-[3-(4-propoxy-phenyl)-isoxazol-5-ylmethyl]-6H-imidazo[4,5-d]pyridazin-4-ylamine] | 56
15 | CCCCc1ccc(-c2cc(Cn3cc4nc(-c5cccc(F)c5F)nc-4cn3)on2)c(C(F)(F)F)c1 [Compound 186, 5-[3-(4-Butyl-2-trifluoromethyl-phenyl)-isoxazol-5-ylmethyl]-2-(2,3-difluoro-phenyl)-5H-imidazo[4,5-d]pyridazine] | 100
16 | CC(Nc1nc2cnn(Cc3cc(-c4ccc(C(F)(F)F)cc4C(F)(F)F)no3)cc-2n1)c1ccccc1 (stereo not drawn) [Compound 258, {5-[3-(2,4-Bis-trifluoromethyl-phenyl)-isoxazol-5-ylmethyl]-5H-imidazo[4,5-d]pyridazin-2-yl}-(1-phenyl-ethyl)-amine] | 40
17 | CCCCCOc1ccc(-c2cc(Cn3cc4nc(-c5ccccc5F)nc-4cn3)on2)cc1 [Compound 107, 2-(2-Fluoro-phenyl)-5-[3-(4-pentyloxy-phenyl)-isoxazol-5-ylmethyl]-5H-imidazo[4,5-d]pyridazine] | 99.4
18 | Fc1cccc(-c2nc3cnn(Cc4cc(-c5ccc(OC(F)(F)C(F)F)cc5)no4)cc-3n2)c1F [Compound 175, 2-(2,3-Difluoro-phenyl)-5-{3-[4-(1,1,2,2-tetrafluoro-ethoxy)-phenyl]-isoxazol-5-ylmethyl}-5H-imidazo[4,5-d]pyridazine] | 99.8
